In US20210308173A1, “PHARMACEUTICAL COMPOSITION COMPRISING CYCLODEXTRIN COMPLEXES OF ANETHOLE TRITHIONE OR DERIVATIVES THEREOF” (priority 2018, published 2021):

Experiment: Incompatibility of AOL with lipid carriers (visual examination)
Type: physicochemical
Experimental: 100 mg of AOL were successfully dissolved in 20 mL of polyglyceryl-3 dioleate (Plurol® Oleique). A homogenous vividly orange colored solution was obtained with less than 5 minutes of magnetic stirring.
The obtained solution turned greed with obvious aspect and odor having turned rancid.
100 mg of AOL were successfully dissolved in 20 mL of 2-[2,3-bis(2-hydroxyethoxy)propoxy]ethanol; hexadecanoic acid; octadecanoic acid (Labrafil® M1944). A homogenous orange colored solution was obtained with less than 5 minutes of magnetic stirring.
The obtained solution turned dark green.
A new solution of 5 mg/mL AOL in Labrafil® M1944 and stocked in a hermetically closed recipient.

Compound: COc1ccc(-c2cc(=S)ss2)cc1 [AOL, 5-(4-methoxyphenyl)-3H-1,2-dithiole-3-thione]
- visual examination of the solution (5 mg/mL in Labrafil M1944, hermetically closed recipient, 24 hours at room temperature): same stability problem
- magnetic stirring time to homogenous solution (100 mg in 20 mL Labrafil M1944): less than 5 minutes
- magnetic stirring time to homogenous solution (100 mg in 20 mL polyglyceryl-3 dioleate (Plurol Oleique)): less than 5 minutes
- visual examination of the solution (Labrafil M1944, after 24 hours at room temperature): intense color change
- visual examination of the solution (Plurol Oleique, after 24 hours at room temperature): intense color change
- stability within lipid carriers (period of 24 hours, visual observation): unstable
